Test results published in patent publication US11584916B2, “Method of making in vivo human small intestine organoids from pluripotent stem cells” (Children's Hospital Medical Center, priority 2014, dated 2023).
“Also recorded” adds a separate entry of the source.

Legend:
[1] = target: T1, peptide transporter (PEPT1) (Homo sapiens, UniProt P46059); settings: in vivo
T1 sequence (P46059 1-708): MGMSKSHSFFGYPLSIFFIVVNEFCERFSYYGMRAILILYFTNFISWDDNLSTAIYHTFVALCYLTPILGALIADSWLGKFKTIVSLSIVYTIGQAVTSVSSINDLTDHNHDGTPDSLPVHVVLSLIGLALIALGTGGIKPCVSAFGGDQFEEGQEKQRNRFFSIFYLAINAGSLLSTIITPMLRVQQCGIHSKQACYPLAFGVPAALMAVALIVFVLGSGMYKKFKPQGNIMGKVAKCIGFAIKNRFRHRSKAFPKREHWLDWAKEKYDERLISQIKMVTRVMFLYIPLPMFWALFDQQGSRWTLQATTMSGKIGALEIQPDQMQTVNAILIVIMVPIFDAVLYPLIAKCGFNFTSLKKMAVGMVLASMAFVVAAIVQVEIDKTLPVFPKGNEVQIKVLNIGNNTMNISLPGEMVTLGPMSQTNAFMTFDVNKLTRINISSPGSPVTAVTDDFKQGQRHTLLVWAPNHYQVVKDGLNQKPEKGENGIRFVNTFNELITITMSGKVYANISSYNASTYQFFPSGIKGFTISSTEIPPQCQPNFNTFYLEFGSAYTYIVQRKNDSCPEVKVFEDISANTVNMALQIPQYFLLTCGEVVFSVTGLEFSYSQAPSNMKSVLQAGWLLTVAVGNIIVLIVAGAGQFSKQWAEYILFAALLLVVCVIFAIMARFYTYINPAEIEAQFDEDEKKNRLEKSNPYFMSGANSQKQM

[2] = tested on: ENS neurons in HIOs+NCCs; assay: Live imaging of Ca2+ flux (GCaMP6f) in HIOs+NCCs in vitro; format: cell-based, human; settings: 30 mM; HIOs+GCaMP6 expressing NCCs
Source text: The accessibility of in vitro grown HIOs allowed us to test the functionality of neurons using live imaging with the Ca2+ sensor GCaMP6f19. To do this, Applicant generated HIOs and incorporated into them NCCs that were derived from a PSC line containing GCaMP6 (FIG. 17A). Imaging of neural activity in HIOs grown for 8 weeks in vitro detected broad, spontaneous, and rapid calcium transients within neurons. When individual neurons were monitored there was an obvious periodicity of calcium efflux in the range of 3-4 seconds/neuron (FIGS. 17B and 17C).

[3] = tested on: HIO+NCC tissues; assay: Ex-vivo intestinal motility, organ bath, muscle strips of engrafted HIO+NCC; format: cell-based, human
[4] = tested on: HIO+NCC tissue; format: cell-based, human
[5] = tested on: human pluripotent stem cells; assay: Directed differentiation of human pluripotent stem cells into definitive endoderm; format: cell-based; settings: 100 ng ml-1 Activin A for 3 d
Description: Human intestinal organoids were generated and maintained as previously described (Spence et al, Nature 2011 and McCracken et al. Nat. Protoc. 2011). Human embryonic stem cells and induced pluripotent stem cells were grown in feeder-free conditions in six-well Nunclon surface plates (Nunc) coated with Matrigel (BD Biosciences) and maintained in mTESR1 media (Stem Cell Technologies). For induction of definitive endoderm (DE), human ES or iPS cells were passaged with Dispase or Accutase (Invitrogen) and plated at a density of 100,000 cells per well in a Matrigel-coated, Nunclon surface 24-well plate. For Accutase split cells, 10 μM Y27632 compound (Sigma) was added to the media for the first day. Cells were allowed to grow until they reached 80-95% confluence. Cells were then treated with 100 ng ml-1 of Activin A for 3 d as previously described (D'Amour et al. Nat. Biotechnol. 2005). DE was then treated with hindgut induction medium (RPMI 1640, 2 mM L-glutamine, 2% decomplemented FBS, penicillin-streptomycin and 100 ng ml-1 Activin A) for 4 d with 500 ng mL-1 FGF4 (R&D) and 3 μM Chiron 99021 (Tocris) to induce formation of mid-hindgut spheroids. […]

[6] = tested on: vagal-level Hox genes HoxB3 and HoxB7; assay: Chick cranial NCC culture, Hox gene expression; format: cell-based; settings: 2 μM RA or 4 ng/mL FGF4 for 48 hours
Description: Chicken eggs were purchased from Charles River and incubated at 39° C. until they reached the desired Hamburger and Hamilton stage. For chicken NCC culture, dorsal neural tubes from cranial or trunk region of HH8 embryos were dissected by Gastromaster and cultured on matrigel-coated tissue culture dish with NCC culture medium (BajPai R et al, 2010) for 24 hours. The neural ectoderm was scrapped off the plate by tungsten needle after NCCs migrated out from the neural tube explants. The NCCs remained on the plate were then treated with 4 ng/mL FGF4 or 2 μM Retinoic acid for 48 hours. For NCCs injection, GFP-labeled human PSC-derived NCCs were collected and injected intersomitically into HH10-12 chicken embryos. The embryos were harvested around HH38 for analysis.

[7] = tested on: vagal-level Hox genes HOXB3, HOXB5, and HOXB7; assay: Posteriorization of human PSC-derived neurospheres/NCCs, Hox gene expression by qRT-PCR; format: cell-based; settings: two days (48 hours) at the neurosphere stage; RA 2 μM
Description: Cells were fed mTeSR1 media and routinely passaged using Dispase II (Gibco). NCCs and HIOs were generated and combined at an early stage of intestinal differentiation to generate HIOs containing ENS. Briefly, for NCC generation (FIG. 1), hPSCs were treated with collagenase IV (500 U/mL) in mTeSR1 for 60 min to detach colonies. Cells were washed to remove collagenase, then gently triturated and resuspended in neural induction media on non-TC treated petri dishes. Neural induction media was changed daily and retinoic acid (2 μM) was added on days 4 and 5 for posteriorization. Day 6 free-floating neurospheres were plated on fibronectin (3 μg/cm2) and fed neural induction media without RA for 4 days. Migrated cells were collected using a brief Accutase treatment (2-3 min) and passaged onto fibronectin or used immediately for combining with HIOs. NCCs were differentiated essentially as described for neuroglial 9 and mesenchymal lineages 36. […] Following the formation of gut tube spheroids, Applicant gently centrifuged spheroids +/−NCCs and embedded them in Matrigel. […]
Total RNA from cells and organoids was isolated using NucleoSpin RNA isolation Kit (Macherey-Nagel). […] Applicant performed qPCR using QuantiTect SYBR Green PCR Kit (Qiagen) on a BioRad CFX96 Real-Time PCR Detection System. […]

Molecule: C[C@H](CS)C(=O)N1CCC[C@H]1C(=O)O [Captopril]
- fluorescence within the epithelium after injection of labeled peptide + competitive inhibitor [1]: little to no fluorescence was observed

Molecule: [Cl-].[K+] [KC1]
- neuronal calcium response [2]: large wave of neuronal calcium efflux

Molecule: COC(=O)[C@@H](N)CCCNC(=N)N[N+](=O)[O-] [L-NAME, NG-nitro-L-arginine methyl ester]
- effect on relaxation after DMPP stimulation ([3]; L-NAME applied 5 min before DMPP (10 μM) stimulation): significantly decreased the relaxation

Molecule: CN(C)c1ccc2nc3ccc(=[N+](C)C)cc-3sc2c1 [Methylene Blue]
- effect on spontaneous phasic contractions (ICC activity) ([3]; Methylene Blue 50 μM, no neuronal stimulation): abolished phasic contractions; also recorded: loss of contractile activity

Molecule: NC1=N[C@H](O)[C@H]2[C@H]3O[C@]4(O)O[C@@H]([C@@H](O)[C@@]2(N1)[C@@H]4O)[C@]3(O)CO [TTX, tetrodotoxin]
- effect on muscle relaxation in response to DMPP and or veratridine [3]: inhibited the ability of the neurons to induce muscle relaxation
- effect on contractions/motility triggered by low voltage EFS [4]: completely inhibited and lost

B1: Activin A: growth factor used to induce definitive endoderm (protein, UniProt P08476 311-426, looked up)
Inhibin beta A chain: GLECDGKVNICCKKQFFVSFKDIGWNDWIIAPSGYHANYCEGECPSHIAGTSGSSLSFHSTVINHYRMRGHSPFANLKSCCVPTKLRPMSMLYYDDGQNIIKKDIQNMIVEECGCS
modifications: Inhibin beta A chain
notes: growth factor used to induce definitive endoderm
- differentiation into definitive endoderm (FOXA2 and SOX17) [5]: efficient differentiation into definitive endoderm

B2: FGF4: growth factor tested as a different posterizing factor (protein, UniProt P08620 31-206, looked up)
Fibroblast growth factor 4: APTAPNGTLEAELERRWESLVALSLARLPVAAQPKEAAVQSGAGDYLLGIKRLRRLYCNVGIGFHLQALPDGRIGGAHADTRDSLLELSPVERGVVSIFGVASRFFVAMSSKGKLYGSPFFTDECTFKEILLPNNYNAYESYKYPGMFIALSKNGKTKKGNRVSPTMKVTHFLPRL
- Hox gene expression in chick cranial NCCs [6]: had no effect
- expression of vagal-level Hox genes in human PSC-derived NCCs [7]: little effect
